According to paper PMC11502347 (Frontiers in Microbiology, 2024):
In brackets after ≈: the same amount, converted by molar mass.

Legend:
[1] = tested on: Citrobacter freundii ATCC 8030 T; assay: microbe, parasite or virus in culture; type: cell-based; settings: ATCC8030
MRC-5 fibroblasts = assay: cells; type: cell-based; settings: Homo sapiens, MRC5; cytotoxicity, resazurin; exposure 24 and 72 h, which one not given
[2] = tested on: intracellular Mtb H37Rv in J774.A1 macrophages; assay: Intracellular antimycobacterial activity in infected macrophages; type: cell-based, Mycobacterium tuberculosis; settings: 10x MIC, 72 h, CFU count
Method: Murine macrophage J774.A1 cells (1 × 10^6 cells/mL) were seeded in 24-well plates and incubated as previously described. After 24 h, the supernatant was discarded, and 1 mL of Mtb inoculum (2 × 10^6 CFU/mL) was added to the wells. The plate was incubated for 2 h to facilitate infection. Subsequently, the supernatant was removed, and the cells were washed with PBS. An amikacin solution (200 μg/mL) was added to ensure the sterility of the extracellular environment. After 2 h, the wells were washed, and treatments were applied (1x, 5x, and 10x MIC90 of Bfx or RFP). The cultures were then incubated for 72 h. After incubation, the cells were lysed using a Triton solution, and the supernatant was collected, serially diluted, and plated on Middlebrook 7H11 medium supplemented with 10% OADC. These plates were incubated for 20–30 days until colony-forming units (CFU) were counted ([Solcia et al., 2021]).

[3] = tested on: Staphylococcus epidermidis ATCC 14990 T; assay: microbe, parasite or virus in culture; type: cell-based; settings: ATCC14990
[4] = tested on: Enterococcus faecalis ATCC 29212; assay: microbe, parasite or virus in culture; type: cell-based; settings: ATCC29212
[5] = tested on: Klebsiella oxytoca CCT 0182; assay: microbe, parasite or virus in culture; type: cell-based; settings: CCT0182
[6] = tested on: Klebsiella pneumoniae subsp. pneumoniae ATCC 13883 T; assay: microbe, parasite or virus in culture; type: cell-based; settings: ATCC13883
[7] = tested on: Gram-negative, Gram-positive bacteria, and fungi, including Candida albicans; assay: microbe, parasite or virus in culture; type: cell-based; settings: all the bacterial and fungal strains tested (Table 2), read-out: MIC90 for all species analyzed
Mtb H37Rv [8] = assay: Checkerboard assay of Bfx with RFP; type: cell-based, Mycobacterium tuberculosis; settings: for MIC90: Mycobacterium tuberculosis, H37RV, compound alone, Table S1
Method: To evaluate the interaction between Bfx and RFP, a checkerboard assay was conducted following the methodology proposed by Berenbaum ([Berenbaum, 1978]).Test compounds were serially diluted in Middlebrook 7H9 broth and arranged in a 96-well plate, starting with 2x MIC for each compound. RFP was also diluted horizontally based on its MIC90. The combinations of different concentrations of Bfx and RFP were incubated with Mtb (5 × 10⁵ CFU/mL) at 37°C and 5% CO₂ for 7 days. Post-incubation, 0.01% resazurin was added, and fluorescence readings were taken after 24 h to determine the Fractional Inhibitory Concentration Index (FICI). The combined effects of the compound combinations were classified according to the Fractional Inhibitory Concentration Index (FICI):
FICI=MICofdrug1incombination/MICofdrug1+MICofdrug2incombination/MICofdrug1

[9] = tested on: Enterococcus faecium NCTC 7171 T; assay: microbe, parasite or virus in culture; type: cell-based; settings: NCTC7171
[10] = tested on: Proteus mirabilis ATCC 29906 T; assay: microbe, parasite or virus in culture; type: cell-based; settings: ATCC29906
Mtb CF 48 (MDR) = type: cell-based, Mycobacterium tuberculosis; settings: MDR clinical isolate; REMA, 7 days
Mtb CF 81 (Pre-XDR) = type: cell-based, Mycobacterium tuberculosis; settings: Pre-XDR clinical isolate; REMA, 7 days
Mtb CF 169 (Pre-XDR) = type: cell-based, Mycobacterium tuberculosis; settings: Pre-XDR clinical isolate; REMA, 7 days
Mtb H37Rv [11] = assay: microbe, parasite or virus in culture; type: cell-based, Mycobacterium tuberculosis; settings: for MIC90: Mycobacterium tuberculosis, H37RV, Table 3; for CIM90 Mtb H37Rv: Sensitive strain, REMA, 7 days
[12] = tested on: Murine macrophage J774.A1; assay: cells; type: cell-based; settings: Mus musculus, cytotoxicity, resazurin, exposure 24 and 72 h, which one not given
[13] = tested on: Staphylococcus saprophyticus subsp. saprophyticus ATCC 15305; assay: microbe, parasite or virus in culture; type: cell-based; settings: ATCC15305
[14] = tested on: Enterobacter cloacae subsp. cloacae ATCC 13883 T; assay: microbe, parasite or virus in culture; type: cell-based; settings: ATCC13883
Mtb H37Rv [15] = assay: In vivo infection and treatment, BALB/c mice; settings: daily oral 4 weeks, 5n 200 mg/kg, RFP 15 mg/kg; for reduction of bacterial load in the lungs: intranasal infection, 5b; for reduction of the pulmonary load: abstract
[16] = tested on: Enterobacter aerogenes ATCC 13048 T; assay: microbe, parasite or virus in culture; type: cell-based; settings: Klebsiella aerogenes, ATCC13048
Mtb CF 61 (MDR) = type: cell-based, Mycobacterium tuberculosis; settings: MDR clinical isolate; REMA, 7 days
[17] = tested on: Candida albicans ATCC 90028; assay: microbe, parasite or virus in culture; type: cell-based; settings: ATCC90028, Sabouraud broth, 48 h
Mtb CF 105 (MDR) = type: cell-based, Mycobacterium tuberculosis; settings: MDR clinical isolate; REMA, 7 days
M. smegmatis = type: cell-based, Mycobacterium smegmatis; settings: Sensitive; REMA, 2 days
Mtb CF 165 (MDR) = type: cell-based, Mycobacterium tuberculosis; settings: MDR clinical isolate; REMA, 7 days
Mtb CF 162 (MDR) = type: cell-based, Mycobacterium tuberculosis; settings: MDR clinical isolate; REMA, 7 days
M. bovis = type: cell-based, Mycobacterium bovis; settings: Sensitive; REMA, 7 days
Mtb CF 171 (MDR) = type: cell-based, Mycobacterium tuberculosis; settings: MDR clinical isolate; REMA, 7 days
intramacrophagic Mtb = tested on: intramacrophagic Mtb; parameters: method as in Matsumoto et al. (2006); settings: at a concentration of 1 μg/mL; experimental conditions not identical; ref Matsumoto et al. (2006); cited from earlier work

Row | Structure (SMILES) | MIC90 [1] [µM] | IC50 (MRC-5 fibroblasts) [µM] | MIC90 [3] [µM] | MIC90 [4] [µM] | MIC90 [5] [µM] | MIC90 [6] [µM] | MIC90 [9] [µM] | MIC90 [10] [µM] | CIM90 CF 48 (Mtb CF 48 (MDR)) | CIM90 CF 81 (Mtb CF 81 (Pre-XDR)) | CIM90 CF 169 (Mtb CF 169 (Pre-XDR)) | MIC90 (Mtb H37Rv [11]) [µM] | IC50 [12] [µM] | MIC90 [13] [µM] | CIM90 CF 61 (Mtb CF 61 (MDR)) | CIM90 CF 105 (Mtb CF 105 (MDR)) | CIM90 M. smegmatis (M. smegmatis) | CIM90 CF 165 (Mtb CF 165 (MDR)) | CIM90 CF 162 (Mtb CF 162 (MDR)) | CIM90 CF 171 (Mtb CF 171 (MDR)) | further results
1 | O=C(Nc1ccc(N2CCSCC2)c(F)c1)c1ccc2no[n+]([O-])c2c1 [Compound 5b] | > 200 | 57.1 | > 200 | > 200 | > 200 | > 200 | > 200 | > 200 | 22,76 ± 13,20 μM | 0,27 ± 0,00 μM | 0,40 ± 0,03 μM | 0.7 (≈ 0.262 µg/mL) | 40.8 | > 200 | 0,28 ± 0,02 μM | > 66,78 μM | 24,17 ± 13,00 μM |  |  |  | inhibition of bacterial load within macrophages [2]: 2.3 log10; MIC90 [7]: > 200 µM; FICI (Mtb H37Rv [8]; Bfx combined with RFP): 0.11; Results (interaction with RFP) (Mtb H37Rv [8]; Bfx combined with RFP): Synergistic (FICI values less than 0.5 indicate synergy); MIC90 (Mtb H37Rv [8]): 0.7 µM; MIC90 combined (Mtb H37Rv [8]; in the combination 5b + RFP): 0,0625 µM; MIC90 [14]: > 200 µM; reduction of bacterial load in the lungs (Mtb H37Rv [15]): 1.45 log10; MIC90 [16]: > 200 µM; MIC90 [17]: > 200 µM
2 | CC(=O)NC[C@H]1CN(c2ccc(N3CCOCC3)c(F)c2)C(=O)O1 [LNZ, linezolid] |  |  |  |  |  |  |  |  | 33,88 ± 1,27 μM | 0,47 ± 0,32 μM | 0,95 ± 0,59 μM |  |  |  |  | 4,15 ± 0,52 μM | 1,0 ± 0,20 μM | 0,95 ± 0,01 μM | 0,41 ± 0,03 μM | 0,58 ± 0,02 μM | CIM90 M. bovis (M. bovis): 0,25 ± 0,1 μM; CIM90 Mtb H37Rv (Mtb H37Rv [11]): 0,5 ± 0,20 μM
3 | NCC[C@H](O)C(=O)N[C@@H]1C[C@H](N)[C@@H](O[C@H]2O[C@H](CN)[C@@H](O)[C@H](O)[C@H]2O)[C@H](O)[C@H]1O[C@H]1O[C@H](CO)[C@@H](O)[C@H](N)[C@H]1O [AMK, amikacin] |  |  |  |  |  |  |  |  | 12,27 ± 6,77 μM | 19,52 ± 12,55 μM | 0,36 ± 0,11 μM |  |  |  | > 42,69 μM | 7,54 ± 11,48 μM | 6,0 ± 2,00 μM | 5,33 ± 0,95 μM | > 42,69 μM | 0,24 ± 0,10 μM | CIM90 M. bovis (M. bovis): 1,5 ± 0,50 μM; CIM90 Mtb H37Rv (Mtb H37Rv [11]): 3,0 ± 1,00 μM
4 | CO[C@H]1/C=C/O[C@@]2(C)Oc3c(C)c(O)c4c(O)c(c(/C=N/N5CCN(C)CC5)c(O)c4c3C2=O)NC(=O)/C(C)=C\C=C\[C@H](C)[C@H](O)[C@@H](C)[C@@H](O)[C@@H](C)[C@H](OC(C)=O)[C@@H]1C [RFP, rifampicin] | 38.9 (≈ 32 µg/mL) | > 122 | 0.001 (≈ 0.000823 µg/mL) | 0.004 (≈ 0.00329 µg/mL) | 7.5 (≈ 6.17 µg/mL) | 5.1 (≈ 4.2 µg/mL) | > 100 | 19.4 (≈ 16 µg/mL) | > 30,38 μM | > 30,38 μM | 6,95 ± 0,19 μM | 0.05 (≈ 0.0411 µg/mL) | > 122 | 0.009 (≈ 0.00741 µg/mL) | > 30,38 μM | > 30,38 μM | 1,21 ± 0,00 μM | > 30,38 μM | > 30,38 μM | > 30,38 μM | CIM90 M. bovis (M. bovis): 0,10 ± 0,01 μM; inhibition of bacterial load within macrophages [2]: 0.7 log10; MIC90 (Mtb H37Rv [8]): 0.05 µM; MIC90 combined (Mtb H37Rv [8]; in the combination 5b + RFP): 0,00098 µM; MIC90 combined (Mtb H37Rv [8]; in the combination 5n + RFP): 0,00098 µM; CIM90 Mtb H37Rv (Mtb H37Rv [11]): 0,05 ± 0,01 μM; MIC90 [14]: > 100 µM; reduction of the pulmonary load (Mtb H37Rv [15]): 1.23 log10 CFU/mL; reduction of bacterial load in the lungs (Mtb H37Rv [15]): 1.23 log10; MIC90 [16]: > 100 µM
5 | C[C@]1(COc2ccc(N3CCC(Oc4ccc(OC(F)(F)F)cc4)CC3)cc2)Cn2cc([N+](=O)[O-])nc2O1 [delamanid] |  |  |  |  |  |  |  |  |  |  |  |  |  |  |  |  |  |  |  |  | intramacrophagic inhibition (intramacrophagic Mtb): 0.7 log₁₀ CFU/mL
6 | O=C(Nc1ccc(N2CCN(c3ccccn3)CC2)c(F)c1)c1ccc2no[n+]([O-])c2c1 [Compound 5n] | > 200 | > 222 | > 200 | > 200 | > 200 | > 200 | > 200 | > 200 | 22.38 ± 9.37 µM | 1,68 ± 1,32 μM |  | 0.09 (≈ 0.0391 µg/mL) | > 230 | > 200 | 0,56 ± 0,47 μM | > 57,26 μM | 41,07 ± 10,05 μM | 1,84 ± 1,73 μM | 2,24 ± 1,47 μM | 0,26 ± 0,05 μM | CIM90 M. bovis (M. bovis): 27,03 ± 10,43 μM; inhibition of bacterial load within macrophages [2]: 0.9 log10; MIC90 [7]: > 200 µM; Results (interaction with RFP) (Mtb H37Rv [8]; Bfx combined with RFP): Synergistic (FICI values less than 0.5 indicate synergy); MIC90 (Mtb H37Rv [8]): 0.09 µM; MIC90 combined (Mtb H37Rv [8]; in the combination 5n + RFP): 0,00578 µM; MIC90 [14]: > 200 µM; reduction of the pulmonary load (Mtb H37Rv [15]): 3.0 log10 CFU/mL; reduction of bacterial load in the lungs (Mtb H37Rv [15]): 3.0 log10; MIC90 [16]: > 200 µM; MIC90 [17]: > 200 µM
7 | NNC(=O)c1ccncc1 [INH, isoniazid] | > 500 | > 729 | > 500 | > 500 | > 500 | > 500 | > 500 | > 500 | > 182,30 μM | > 182,30 μM | > 182,30 μM | 0.95 (≈ 0.13 µg/mL) | > 729 | > 500 | > 182,30 μM | > 182,30 μM | 2,0 ± 0,50 μM | 71,56 ± 24,71 μM | > 182,30 μM | > 182,30 μM | CIM90 Mtb H37Rv (Mtb H37Rv [11]): 0,95 ± 0,43 μM; MIC90 [14]: > 500 µM; MIC90 [16]: > 500 µM
8 | O=[N+]([O-])c1cn2c(n1)OC[C@@H](OCc1ccc(OC(F)(F)F)cc1)C2 [pretomanid] |  |  |  |  |  |  |  |  |  |  |  |  |  |  |  |  |  |  |  |  | intramacrophagic inhibition (intramacrophagic Mtb): 0.2 log₁₀ CFU/mL
